Consider two compounds from article PMC11915801, “Evolutionary trajectory of bacterial resistance to antibiotics and antimicrobial peptides in Escherichia coli” (mSystems, 2025).

Values after ≈ are worked out from the molar mass of the structure shown. Read-outs that look alike come from different tables or passages of the source.

What all share (assay): microbe, parasite or virus in culture
Type in all cases: cell-based, Escherichia coli

In one assay the test system is E. coli K-12 MG1655. As to conditions: Escherichia coli. As to the method:
(§1) The broth microdilution method was used to measure the MIC values of antibiotics and peptides according to the Clinical and Laboratory Standards Institute guidelines. The MIC value is defined as the lowest drug concentration without visible bacteria.
Eight antibiotics and ten AMPs at the sub-inhibitory concentration were prepared. A 300-µL system, including 260 µL of MH broth, 30 µL of prepared drug, and 10 µL of bacterial culture, was used for resistance passages. After 12 h of incubation at 37℃ and 200 rpm, 10 µL of the above bacterial culture was added into the new sterile drug-containing broth. MIC values of bacterial culture were determined. The drug concentration was adjusted according to the MIC value change until the end of the 120 passages.

The subject of a further assay is TMP30 (evolved MG1655). As to conditions: Escherichia coli, MG1655; broth microdilution; trimethoprim-evolved strain.
Description: (§2) To ensure the stable resistance evolution and inheritance of MG1655 under different drugs, we randomly selected three monoclonals from the evolved strains. The final antibiotic-evolved strains were designated as AMP120, AZI120, CHL80, CIP120, DOX120, KAN80, NIT70, and TMP30, while the final AMP-evolved strains were named COL120, Ind120, Omi120, Pex120, PGLA120, Pleu120, R8120, SAAP120, LI120, and SLAP120.
as §1
(Dilution methods test growth across graded concentrations, often in twofold steps.)

Another assay relates to AMP120 (evolved MG1655). The conditions noted are these: Escherichia coli, MG1655; broth microdilution; ampicillin-evolved strain.
Description: as §2, §1

A further assay deals with KAN80 (evolved MG1655). As to conditions: Escherichia coli, MG1655; broth microdilution; kanamycin-evolved strain.
Description: as §2, §1

The test system of another assay is CHL80 (evolved MG1655). The conditions noted are these: Escherichia coli, MG1655; broth microdilution; chloramphenicol-evolved strain.
Description: as §2, §1

The next assay has as its system NIT70 (evolved MG1655). The conditions noted are these: Escherichia coli, MG1655; broth microdilution; nitrofurantoin-evolved strain.
Description: as §2, §1

The test system of another assay is AZI120 (evolved MG1655). As to conditions: Escherichia coli, MG1655; broth microdilution; azithromycin-evolved strain.
Description: as §2, §1

The test system of a further assay is DOX120 (evolved MG1655). The conditions noted are these: Escherichia coli, MG1655; broth microdilution; doxycycline-evolved strain.
Description: as §2, §1

The next assay has as its system CIP120 (evolved MG1655). The conditions noted are these: Escherichia coli; broth microdilution; ciprofloxacin-evolved strain.
Description: as §2, §1

Another assay has as its system COL120 (evolved MG1655). As to conditions: for MIC: Escherichia coli, MG1655, broth microdilution, colistin-evolved strain.
Description: as §2, §1

[1] abbreviates: MG1655, 12 h, read-out: MIC of MG1655 under the pressure of the same drug, generation 10.
Where [2] appears, read: MG1655, read-out: MIC of MG1655 under the pressure of the same drug, generation primary.
Where [3] appears, read: MG1655, as E2, generation 20, read-out: MIC of MG1655 under the pressure of the same drug, generation 20.
Setting [4] is: MG1655, as E2, generation 30, read-out: MIC of MG1655 under the pressure of the same drug, generation 30.
The mark [5] stands for this setting: MG1655, as E2, generation 40, read-out: MIC of MG1655 under the pressure of the same drug, generation 40.
Where [6] appears, read: MG1655, as E2, generation 50, read-out: MIC of MG1655 under the pressure of the same drug, generation 50.
Where [7] appears, read: MG1655, as E2, generation 60, read-out: MIC of MG1655 under the pressure of the same drug, generation 60.
[8] abbreviates: MG1655, as E2, generation 70, read-out: MIC of MG1655 under the pressure of the same drug, generation 70.
Where [9] appears, read: MG1655, as E2, generation 80, read-out: MIC of MG1655 under the pressure of the same drug, generation 80.
[10] abbreviates: MG1655, as E2, generation 90, read-out: MIC of MG1655 under the pressure of the same drug, generation 90.
The mark [11] stands for this setting: MG1655, as E2, generation 100, read-out: MIC of MG1655 under the pressure of the same drug, generation 100.
Where [12] appears, read: MG1655, as E2, generation 110, read-out: MIC of MG1655 under the pressure of the same drug, generation 110.
[13] abbreviates: MG1655, as E2, generation 120, read-out: MIC of MG1655 under the pressure of the same drug, generation 120.

On to `C[C@H]1c2cccc(O)c2C(=O)C2=C(O)[C@]3(O)C(=O)C(C(N)=O)=C(O)[C@@H](N(C)C)[C@@H]3[C@@H](O)[C@@H]21` [DOX, Doxycycline], for which the MIC with E. coli K-12 MG1655 (setting [1]) is 16 µg/mL; with E. coli K-12 MG1655 (setting [2]) it was 2 µg/mL; in the assay with E. coli K-12 MG1655 (setting [3]), 32 µg/mL; in the assay on E. coli K-12 MG1655 (setting [4]), 32 µg/mL; with E. coli K-12 MG1655 (setting [5]), 32 µg/mL; with E. coli K-12 MG1655 (setting [6]) it was 32 µg/mL. The MIC in the assay with E. coli K-12 MG1655 (setting [7]), in the assay with E. coli K-12 MG1655 (setting [8]), in the assay on E. coli K-12 MG1655 (setting [9]), in the assay with E. coli K-12 MG1655 (setting [10]), with E. coli K-12 MG1655 (setting [11]) and in the assay on E. coli K-12 MG1655 (setting [12]) was 32 µg/mL throughout. Moreover, the MIC was found to be 32 µg/mL with E. coli K-12 MG1655 (setting [13]); 4 µg/mL (≈ 9 µM) against TMP30 (evolved MG1655); 2 µg/mL (≈ 4.5 µM) against AMP120 (evolved MG1655); 1 µg/mL (≈ 2.25 µM) in the assay on KAN80 (evolved MG1655); 16 µg/mL (≈ 36 µM) in the assay with CHL80 (evolved MG1655); 8 µg/mL (≈ 18 µM) in the assay with NIT70 (evolved MG1655). Also, the MIC in the assay on AZI120 (evolved MG1655) worked out at 8 µg/mL (≈ 18 µM); with DOX120 (evolved MG1655), 32 µg/mL (≈ 72 µM); in the assay on CIP120 (evolved MG1655), 16 µg/mL (≈ 36 µM); in the assay with COL120 (evolved MG1655), 4 µg/mL (≈ 9 µM).
Take `CC[C@H]1OC(=O)[C@H](C)[C@@H](O[C@H]2C[C@@](C)(OC)[C@@H](O)[C@H](C)O2)[C@H](C)[C@@H](O[C@@H]2O[C@H](C)C[C@H](N(C)C)[C@H]2O)[C@](C)(O)C[C@@H](C)CN(C)[C@H](C)[C@@H](O)[C@]1(C)O` [AZI, Azithromycin]: the MIC came to 2 µg/mL with E. coli K-12 MG1655 (setting [1]); 2 µg/mL in the assay on E. coli K-12 MG1655 (setting [2]); 2 µg/mL with E. coli K-12 MG1655 (setting [3]); 2 µg/mL in the assay on E. coli K-12 MG1655 (setting [4]); 2 µg/mL with E. coli K-12 MG1655 (setting [5]); 4 µg/mL in the assay with E. coli K-12 MG1655 (setting [6]). Besides, the MIC amounted to 4 µg/mL in the assay with E. coli K-12 MG1655 (setting [7]); 4 µg/mL with E. coli K-12 MG1655 (setting [8]); 4 µg/mL in the assay with E. coli K-12 MG1655 (setting [9]); 4 µg/mL in the assay on E. coli K-12 MG1655 (setting [10]); 4 µg/mL in the assay with E. coli K-12 MG1655 (setting [11]); 8 µg/mL with E. coli K-12 MG1655 (setting [12]). Further, the MIC worked out at 16 µg/mL with E. coli K-12 MG1655 (setting [13]); 16 µg/mL (≈ 21.4 µM) against TMP30 (evolved MG1655); 1 µg/mL (≈ 1.34 µM) in the assay on AMP120 (evolved MG1655); 2 µg/mL (≈ 2.67 µM) against KAN80 (evolved MG1655); 2 µg/mL (≈ 2.67 µM) in the assay on CHL80 (evolved MG1655); 4 µg/mL (≈ 5.34 µM) against NIT70 (evolved MG1655). In addition, the MIC in the assay on AZI120 (evolved MG1655) was determined as 16 µg/mL (≈ 21.4 µM); with DOX120 (evolved MG1655), 2 µg/mL (≈ 2.67 µM); against CIP120 (evolved MG1655) it was 4 µg/mL (≈ 5.34 µM); in the assay on COL120 (evolved MG1655), 0.5 µg/mL (≈ 0.668 µM). Further, the “collateral sensitivity of COL120 (fold change of MIC vs wild-type MG1655)” value in the assay with COL120 (evolved MG1655) (MIC of COL120 compared with MG1655) is “exceeding fourfold”.
